Read-outs that look alike come from different tables or passages of the source.
Columns and labels:
[1] = molecular target: T1, human serotonin transporters (Homo sapiens, UniProt P31645); experiment: Serotonin transporter binding assay ([3H]-citalopram binding, HEK-hSERT cell membranes)
T1 construct: expressed in transfected cells; host or cells: HEK-293 (HEK-hSERT cells), membrane homogenates
Excerpt: The compounds of Formula I bind potently to the human 5-HT transporter and inhibit the re-uptake of endogenous serotonin. Selective serotonin reuptake inhibitors (SSRIs) are effective for the treatment of mental depression and have been reported to be useful for treating chronic pain (see: R. W. Fuller, Pharmacologic Modification of Serotonergic Function: Drugs for the Study and Treatment of Psychiatric and Other Disorders,” J. Clin. Psychiatry, 47:4 (Suppl.) April 1986, pp. 4-8). Compounds of the present invention are also envisioned to be useful for treating psychosis, acute mania, mild anxiety states or depression with secondary psychotic episodes. The present compounds are also envisioned to be useful in treating obsessive-compulsive disorders, feeding disorders, anxiety disorders and panic disorders.
HEK-293 cells that stably express human serotonin transporters (HEK-hSERT cells) were grown at 37° C. in 5% CO2 as a monolayer in medium consisting of EMEM supplemented with 10% fetal bovine serum and G418 sulfate (500 μg/ml). To prepare membranes for radioligand binding experiments, cells were rinsed twice with phosphate-buffered saline (138 mM NaCl, 4.1 mM KCl, 5.1 mM Na2PO4, 1.5 mM […], 11.1 mM glucose, pH 7.4). Cells were transferred from plates to polypropylene tubes (16×100 mm), centrifuged at 1,200×g for 5 min and were frozen at −80° C. until assay. Following centrifugation, pellets were resuspended by homogenization in buffer consisting of 50 mM Tris (pH 7.7 at 25° C.), 120 mM NaCl and 5 mM KCl and then centrifuged at 32,000×g for 10 min. Following centrifugation, supernatants were discarded and pellets were resuspended in buffer consisting of 50 mM Tris (pH 7.4 at 25° C.), 150 mM NaCl and 5 mM KCl. Membrane homogenates (200 μl/plate) were incubated with 1 nM [^3H]-citalopram (specific activity=85 Ci/mmol) and increasing concentrations of test compounds for 1 hour at 25° C. in a total volume of 250 μl. The assay buffer consisted of 50 mM Tris (pH 7.4 at 25° C.), 120 mM NaCl and 5 mM KCl (pH 7.4 with conc. HCl). Plates were incubated for 1 hour at 25° C., then filtered through 0.5% PEI treated Whatman GF/B filters using a Brandel cell harvester. Filters were washed three times with 3 ml of ice-cold tris wash buffer. Non-specific binding was defined with 10 μM fluoxetine. Amount of radioligand bound in the presence and absence of competitor was analyzed by plotting (−)log drug concentration versus the amount of radioligand specifically bound. The midpoint of the displacement curve (IC50, nM), signifies the potency. Ki values were calculated using the method of Cheng and Prusoff (1973).
Substances which inhibit the re-uptake of serotonin are recognized to be effective antidepressants (Selective Serotonin Reuptake Inhibitors. Edited by J P Feighner and W F Boyer, Chichester, England. John Wiley & Sons, 1991, pp 89-108). Test data IC50 values lower than 250 nM are considered to reflect activity as an inhibitor of serotonin re-uptake.

[2] = molecular target: T2, recombinant human dopamine D2L receptors (Homo sapiens, UniProt P14416); experiment: Dopamine binding protocol ([3H]-spiperone binding, HEK-D2L cell membranes)
T2 construct: expressed in transfected cells; host or cells: HEK-293 (HEK-D2L cells), membrane homogenates
T2 sequence (P14416 whole entry): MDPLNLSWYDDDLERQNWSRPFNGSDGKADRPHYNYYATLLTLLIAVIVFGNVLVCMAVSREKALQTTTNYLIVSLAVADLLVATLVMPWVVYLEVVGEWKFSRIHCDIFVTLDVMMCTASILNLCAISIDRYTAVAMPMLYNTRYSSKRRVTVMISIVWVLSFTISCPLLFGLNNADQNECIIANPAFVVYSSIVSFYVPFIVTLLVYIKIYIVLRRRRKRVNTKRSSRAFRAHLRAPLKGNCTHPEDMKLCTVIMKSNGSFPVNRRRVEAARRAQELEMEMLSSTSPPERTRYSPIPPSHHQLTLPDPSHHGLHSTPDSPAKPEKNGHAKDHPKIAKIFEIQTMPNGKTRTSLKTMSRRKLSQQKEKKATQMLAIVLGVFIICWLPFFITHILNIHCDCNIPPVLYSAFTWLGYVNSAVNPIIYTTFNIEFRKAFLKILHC
Procedure: Like many clinically effective antipsychotic agents, the compounds of Formula I also are antagonists at the human D2L receptor as determined by [^3H]-spiperone binding studies using human D2L receptors stably expressed in HEK-293 cells.
HEK-293 cells that stably express recombinant human dopamine D2L receptors (HEK-D2L cells) were grown at 37° C. in 5% CO2 as a monolayer in medium consisting of EMEM supplemented with 10% fetal bovine serum and G418 sulfate (500 μg/ml). To prepare membranes for radioligand binding experiments, cells were rinsed twice with phosphate-buffered saline (138 mM NaCl, 4.1 mM KCl, 5.1 mM Na2PO4, 1.5 mM […] 11.1 mM glucose, pH 7.4), and incubated for 5-10 min. at 4° C. in hypotonic lysis buffer consisting of 10 mM Tris (pH 7.4) and 5 mM EDTA. Cells were transferred from plates to polypropylene tubes (16×100 mm), homogenized and centrifuged at 32,000×g for 20 min. Following centrifugation, pellets were resuspended by homogenization in buffer consisting of 50 mM Tris (pH 7.7 at 25° C.) and 1 mM EDTA. Homogenates were stored at −80° C. until needed. On the day of an experiment, homogenates were thawed then centrifuged at 32,000×g for 20 min. Following centrifugation, supernatants were discarded and pellets were resuspended in assay buffer consisting of 50 mM Tris (pH 7.4 at 25° C.), 1 mM EDTA and 6 mM MgCl2. Membrane homogenates (˜5 μg) were incubated with 150 pM [^3H]-spiperone (Amersham Life Science) and increasing concentrations of test compounds for 1.5 hours at 22° C. in a total volume of 400 μl. Reactions were stopped by addition of ice-cold assay buffer and filtration over glass fiber filters (Whatman GFB, pre-soaked in 0.05% polyethylenimine) using a microtitre format Brandel cell harvester. Filters were washed with 3 ml of ice-cold assay buffer. Non-specific binding was defined with 2 μM (+)butaclamol. Ki values were calculated using the method of Cheng and Prusoff (1973). Protein concentrations were determined by the method of Bradford (1976) with BSA as a standard.
Test data IC50 values lower than 250 nM are considered to reflect affinity for dopamine D2L receptors.

[3] = [3H]-citalopram, HEK-hSERT membranes, read-out: inhibit the re-uptake of serotonin with Ki
[4] = [3H]-spiperone, HEK-D2L membranes, read-out: dopamine D2L ligands with Ki

T1 sequence (P31645 whole entry): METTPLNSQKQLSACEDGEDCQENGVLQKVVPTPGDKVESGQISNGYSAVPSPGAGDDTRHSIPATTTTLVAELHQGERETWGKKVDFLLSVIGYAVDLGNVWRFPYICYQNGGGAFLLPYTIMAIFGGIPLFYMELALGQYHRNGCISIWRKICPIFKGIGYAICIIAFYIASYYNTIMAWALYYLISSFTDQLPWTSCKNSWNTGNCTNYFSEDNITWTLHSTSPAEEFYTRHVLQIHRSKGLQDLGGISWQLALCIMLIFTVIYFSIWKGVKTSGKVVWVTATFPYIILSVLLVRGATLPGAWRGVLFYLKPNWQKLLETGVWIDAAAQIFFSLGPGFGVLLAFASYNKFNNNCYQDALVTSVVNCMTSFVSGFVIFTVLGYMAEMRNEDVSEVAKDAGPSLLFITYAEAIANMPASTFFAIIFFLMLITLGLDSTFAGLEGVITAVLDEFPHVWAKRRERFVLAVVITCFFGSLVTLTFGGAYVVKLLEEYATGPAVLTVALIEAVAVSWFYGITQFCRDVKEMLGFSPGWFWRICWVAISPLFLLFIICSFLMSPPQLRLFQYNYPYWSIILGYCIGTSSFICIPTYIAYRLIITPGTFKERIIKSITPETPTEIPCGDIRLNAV

Row | Ki [1, 3] | Ki [2, 4] | SMILES | Ki [1] | Ki [2]
1 | < 100 nM | < 100 nM | N#Cc1ccc2[nH]cc(C3CCN(CCCOc4ccccc4)CC3)c2c1 [Example 4, 3-[1-(3-phenoxypropyl)-4-piperidinyl]-5-cyanoindole] | – | –
2 | < 100 nM | < 100 nM | N#Cc1ccc2[nH]cc(C3CCN(CCCOc4ccccc4F)CC3)c2c1 [Example 5, 3-{1-[3-(2-fluorophenoxy)propyl]-4-piperidinyl}-5-cyanoindole] | – | –
3 | < 100 nM | < 100 nM | N#Cc1ccc2[nH]cc(C3CCN(CCCOc4ccc(F)cc4)CC3)c2c1 [Example 6, 3-{1-[3-(4-fluorophenoxy)propyl]-4-piperidinyl}-5-cyanoindole] | – | –
4 | < 100 nM | < 100 nM | COc1ccccc1OCCCN1CCC(c2c[nH]c3ccc(C#N)cc23)CC1 [Example 7, 3-{1-[3-(2-methoxyphenoxy)propyl]-4-piperidinyl}-5-cyanoindole] | – | –
5 | < 100 nM | < 100 nM | COc1cccc(OCCCN2CCC(c3c[nH]c4ccc(C#N)cc34)CC2)c1 [Example 8, 3-{1-[3-(3-methoxyphenoxy)propyl]-4-piperidinyl}-5-cyanoindole] | – | –
6 | < 100 nM | < 100 nM | COc1ccc(OCCCN2CCC(c3c[nH]c4ccc(C#N)cc34)CC2)cc1 [Example 9, 3-{1-[3-(4-methoxyphenoxy)propyl]-4-piperidinyl}-5-cyanoindole] | – | –
7 | < 100 nM | < 100 nM | COc1ccc(OCCCN2CCC(c3c[nH]c4ccc(C#N)cc34)CC2)cc1OC [Example 10, 3-{1-[3-(3,4-dimethoxyphenoxy)propyl]-4-piperidinyl}-5-cyanoindole] | – | –
8 | – | – | Cc1nc2cc(OCCCN3CC=C(c4c[nH]c5cccc(F)c45)CC3)ccc2s1 [Example 11, 5-{3-[4-(4-fluoroindol-3-yl)-1,2,5,6-tetrahydropyrid-1-yl]propoxy}-2-methylbenzothiazole] | < 100 nM | < 100 nM
9 | – | – | Cc1nc2cc(OCCCN3CC=C(c4c[nH]c5ccc(C#N)cc45)CC3)ccc2s1 [Example 12, 5-{3-[4-(5-cyanoindol-3-yl)-1,2,5,6-tetrahydropyrid-1-yl]propoxy}-2-methylbenzothiazole] | < 100 nM | < 100 nM
10 | – | – | Cc1nc2cc(OCCCCN3CC=C(c4c[nH]c5cccc(F)c45)CC3)ccc2s1 [Example 13, 5-{4-[4-(4-fluoroindol-3-yl)1,2,5,6-tetrahydropyrid-1-yl]butoxy}-2-methylbenzothiazole] | < 100 nM | < 100 nM
11 | – | – | Cc1nc2cc(OCCCCCN3CC=C(c4c[nH]c5cccc(F)c45)CC3)ccc2s1 [Example 14, 5-{5-[4-(4-fluoroindol-3-yl)-1,2,5,6-tetrahydropyrid-1-yl]pentoxy}-2-methylbenzothiazole] | < 100 nM | < 100 nM
12 | – | – | Cc1nc2cc(OCCCCN3CC=C(c4c[nH]c5ccc(F)cc45)CC3)ccc2s1 [Example 15, 5-{4-[4-(5-fluoroindol-3-yl)1,2,5,6-tetrahydropyrid-1-yl]butoxy}-2-methylbenzothiazole] | < 100 nM | < 100 nM
13 | – | – | Cc1nc2cc(OCCCCCN3CC=C(c4c[nH]c5ccc(F)cc45)CC3)ccc2s1 [Example 16, 5-{5-[4-(5-fluoroindol-3-yl)-1,2,5,6-tetrahydropyrid-1-yl]pentoxy}-2-methylbenzothiazole] | < 100 nM | < 100 nM
14 | – | – | Cc1nc2cc(OCCCN3CC=C(c4c[nH]c5c(F)cccc45)CC3)ccc2s1 [Example 17, 5-{3-[4-(7-fluoroindol-3-yl)-1,2,5,6-tetrahydropyrid-1-yl]propoxy}-2-methylbenzothiazole] | < 100 nM | < 100 nM
15 | – | – | Cc1nc2cc(OCCCCN3CC=C(c4c[nH]c5c(F)cccc45)CC3)ccc2s1 [Example 18, 5-{4-[4-(7-fluoroindol-3-yl)1,2,5,6-tetrahydropyrid-1-yl]butoxy}-2-methylbenzothiazole] | < 100 nM | < 100 nM
16 | – | – | Cc1nc2cc(OCCCCCN3CC=C(c4c[nH]c5c(F)cccc45)CC3)ccc2s1 [Example 19, 5-{5-[4-(7-fluoroindol-3-yl)-1,2,5,6-tetrahydropyrid-1-yl]pentoxy}-2-methylbenzothiazole] | < 100 nM | < 100 nM
17 | – | – | Cc1nc2cc(OCCCCN3CC=C(c4c[nH]c5ccc(Cl)cc45)CC3)ccc2s1 [Example 20, 5-{4-[4-(5-chloroindol-3-yl)1,2,5,6-tetrahydropyrid-1-yl]butoxy}-2-methylbenzothiazole] | < 100 nM | < 100 nM
18 | – | – | Cc1nc2cc(OCCCCCN3CC=C(c4c[nH]c5ccc(Cl)cc45)CC3)ccc2s1 [Example 21, 5-{5-[4-(5-chloroindol-3-yl)-1,2,5,6-tetrahydropyrid-1-yl]pentoxy}-2-methylbenzothiazole] | < 100 nM | < 100 nM
19 | – | – | Cc1nc2cc(OCCCN3CC=C(c4c[nH]c5cc(Cl)ccc45)CC3)ccc2s1 [Example 22, 5-{3-[4-(6-chloroindol-3-yl)-1,2,5,6-tetrahydropyrid-1-yl]propoxy}-2-methylbenzothiazole] | < 100 nM | < 100 nM
20 | – | – | Cc1nc2cc(OCCCCN3CC=C(c4c[nH]c5cc(Cl)ccc45)CC3)ccc2s1 [Example 23, 5-{4-[4-(6-chloroindol-3-yl)1,2,5,6-tetrahydropyrid-1-yl]butoxy}-2-methylbenzothiazole] | < 100 nM | < 100 nM
21 | – | – | Cc1nc2cc(OCCCCCN3CC=C(c4c[nH]c5cc(Cl)ccc45)CC3)ccc2s1 [Example 24, 5-{5-[4-(6-chloroindol-3-yl)-1,2,5,6-tetrahydropyrid-1-yl]pentoxy}-2-methylbenzothiazole] | < 100 nM | < 100 nM
22 | – | – | Cc1nc2cc(OCCCN3CC=C(c4c[nH]c5cc(Br)ccc45)CC3)ccc2s1 [Example 25, 5-{3-[4-(6-bromoindol-3-yl)-1,2,5,6-tetrahydropyrid-1-yl]propoxy}-2-methylbenzothiazole] | < 100 nM | < 100 nM
23 | – | – | Cc1nc2cc(OCCCCN3CC=C(c4c[nH]c5cc(Br)ccc45)CC3)ccc2s1 [Example 26, 5-{4-[4-(6-bromoindol-3-yl)1,2,5,6-tetrahydropyrid-1-yl]butoxy}-2-methylbenzothiazole] | < 100 nM | < 100 nM
24 | – | – | Cc1nc2cc(OCCCCCN3CC=C(c4c[nH]c5cc(Br)ccc45)CC3)ccc2s1 [Example 27, 5-{5-[4-(6-bromoindol-3-yl)-1,2,5,6-tetrahydropyrid-1-yl]pentoxy}-2-methylbenzothiazole] | < 100 nM | < 100 nM
